Experimental data: ChEMBL document CHEMBL1201862, “PubChem BioAssay data set” (2004)
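Assay format: 96-well plates, 48-hour exposure. Here, GI50 denotes the concentration required for 50% inhibition of growth.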 Active and inactive are the calls of the source. No stated cut-off is given here; in the data, active = GI50 up to about 1.1 µM and inactive = higher. Residues, ends and D or L forms follow the SMILES beside them.

Tests used:
Assay in all cases: DTP human tumour cell line panel, 48 h
[1] = system: 786-0
[2] = system: A498
[3] = system: ACHN
[4] = system: DU-145
[5] = system: EKVX
[6] = system: HCT-116
[7] = system: HOP-62
[8] = system: IGROV-1
[9] = system: MDA-MB-231
[10] = system: NCI-H226
[11] = system: NCI-H23
[12] = system: OVCAR-5
[13] = system: OVCAR-8
[14] = system: RPMI-8226
[15] = system: SF-539
[16] = system: SK-MEL-2
[17] = system: SN12C
[18] = system: U-251
[19] = system: UACC-257
[20] = system: UO-31

Measured: GI50

CC1C(O)Oc2cc3c(cc2C1c1ccccc1O)OCO3 (stereo not given)
inactive: [1] 39.4 µM | [2] 29.6 µM | [3] 29.6 µM | [4] 40.6 µM | [5] 43.6 µM | [6] 17.9 µM | [7] 65 µM | [8] 28 µM | [9] 34.6 µM | [10] 18.6 µM | [11] 46.1 µM | [12] 45.7 µM | [13] 36.5 µM | [14] 16.7 µM | [15] 27.9 µM | [16] 25.9 µM | [17] 39.2 µM | [18] 37.8 µM | [19] 30.1 µM | [20] 28.8 µM

CC(=O)NC(CO)C(=O)NC(Cc1ccc(O)cc1)C(=O)NCC(N)=O (stereo not drawn) (Ac-Ser-Tyr-Gly-NH2; configuration not given here)
inactive: [1] > 100 µM | [2] > 100 µM | [3] > 100 µM | [4] > 100 µM | [5] > 100 µM | [6] > 100 µM | [7] > 100 µM | [8] > 100 µM | [9] > 100 µM | [10] > 100 µM | [11] > 100 µM | [12] > 100 µM | [13] > 100 µM | [14] > 100 µM | [15] > 100 µM | [16] > 100 µM | [17] > 100 µM | [18] > 100 µM | [19] > 100 µM | [20] > 100 µM

COc1ccc(C2c3cc4c(cc3OC(N3CCOCC3)C2C)OCO4)c(OC)c1 (stereo not given)
inactive: [1] 4.63 µM | [2] 4.68 µM | [3] 9.48 µM | [4] 9.89 µM | [5] 13.9 µM | [6] 3.77 µM | [7] 5.06 µM | [8] 7.59 µM | [9] 8.69 µM | [10] 3.72 µM | [11] 11.9 µM | [12] 19.1 µM | [13] 8 µM | [14] 3.15 µM | [15] 3.05 µM | [16] 4.95 µM | [17] 10.7 µM | [18] 4.09 µM | [19] 6.3 µM | [20] 9.06 µM

CC1(CNCc2ccccc2)CC(CCc2ccccc2)N(C(=O)c2ccc([N+](=O)[O-])cc2)C1Cc1ccc(O)cc1 (stereo not given)
inactive: [1] 11.8 µM | [2] 12.9 µM | [3] 12 µM | [4] 14.7 µM | [5] 14.4 µM | [6] 10.4 µM | [7] 15.8 µM | [8] 15 µM | [9] 10.3 µM | [10] 9.93 µM | [11] 10.3 µM | [12] 17.6 µM | [13] 14.4 µM | [14] 17.3 µM | [15] 17.1 µM | [16] 13.6 µM | [17] 6.76 µM | [18] 12.3 µM | [19] 12.4 µM | [20] 11.3 µM
